Experimental data as given in publication PMC8869358, “High-Throughput Chemical Screening and Structure-Based Models to Predict hERG Inhibition” (Biology, 2022).
Where a name gives a salt, the structure may show the parent alone. Read-outs that look alike come from different tables or passages of the source.

What was measured:
hERG [1] = target: T1, hERG (Homo sapiens, UniProt Q12809); experiment: Tox21 qHTS FluxOR thallium flux assay in hERG-U2OS cells
Experimental: The hERG-U2OS cell line was purchased from Codex BioSolution, Inc. (Gaithersburg, MD, USA). All the cell culture reagents were obtained from Invitrogen (Life Technologies, Madison, WI, USA). The hERG-U2OS cells were cultured in DMEM with Glutamax containing 10% fetal bovine serum (FBS), 1% of Non-Essential AA (NEAA), 50 U/mL penicillin, 50 μg/mL streptomycin, and 1 µg/mL puromycin. The cells were maintained at 37 °C under a humidified atmosphere and 5% CO2.
A FluxORTM thallium flux assay was performed in hERG-U2OS cells with stable hERG expression, as previously described. In this assay, thallium ions are used as surrogates for K^+ ions to monitor the activity of the hERG K^+ channel. […] The hERG-U2OS cells suspended in culture medium were dispensed at 1000 cells/well/3μL into 1536-well, black wall/clear-bottom plates using a Multidrop Combi dispenser (Thermo Fisher, Waltham, MA, USA). After the assay plates were incubated at 37 °C overnight, 3 μL of Loading Buffer provided from FluxOR II Potassium Ion Channel Assay Kit (Life Technologies, Carlsbad, CA, USA) was added to each assay well. The assay plates were then incubated at room temperature in the dark for 1 h, followed by the addition of 23 nL of compound, dissolved in DMSO, DMSO only, or positive control, to the assay plate. Each compound was tested at 15 concentrations in three independent runs.
Multiple criteria were used to select each small molecule, including properties allowing for high-throughput screens (HTS) (molecular weight, volatility, solubility, logP), commercial availability, possible and definite environmental hazards, or exposure concerns, and cost. A diverse group of 88 compounds was selected to be used as an internal control and plated in duplicate on each library plate to perform reproducibility analysis as well as to determine positional plate effects. Each compound in the Tox21 10K compound library was subjected to analytical chemistry quality control (QC), which provides information on the purity and identity of each sample. […] The compounds were serially diluted in Dimethylsulfoxide (DMSO) to 15 concentrations in 1536-well plates, covering a concentration range of up to four orders of magnitude.
Many of these chemicals were sourced independently by NTP/EPA/NCATS from different vendors or the same vendor but different batches; these chemicals have been tested in replicates. Compound concentration-response data analysis was performed as previously described. […] The dataset was then corrected using the DMSO-only compound plates at the beginning and end of the compound plate stack by applying an in-house pattern correction algorithm. The half-maximum inhibition values (IC50) for each compound and maximum response (efficacy) values were obtained by fitting the concentration-response curves of each compound to a four-parameter Hill equation [24]. […] To identify chemicals with the potential to inhibit the hERG channel, we selected only antagonist chemicals with curve rank −5 to −9.

hERG [2] = target: T1, hERG; experiment: cell-based; details: (-LOG10(IC50), µM)
hERG [3] = target: T1, hERG; experiment: in vitro; details: herg fluxor ii thallium influx, (-LOG10(IC50), µM)
[4] = hERG-U2OS cells, thallium flux, qHTS, result in words
[5] = IC50, hERG-U2OS cells, thallium flux, qHTS, 15 concentrations, three runs
[6] = (-LOG10(IC50), µM), Supplementary File S2, Tox21 chemical library

T1 sequence (Q12809 whole entry): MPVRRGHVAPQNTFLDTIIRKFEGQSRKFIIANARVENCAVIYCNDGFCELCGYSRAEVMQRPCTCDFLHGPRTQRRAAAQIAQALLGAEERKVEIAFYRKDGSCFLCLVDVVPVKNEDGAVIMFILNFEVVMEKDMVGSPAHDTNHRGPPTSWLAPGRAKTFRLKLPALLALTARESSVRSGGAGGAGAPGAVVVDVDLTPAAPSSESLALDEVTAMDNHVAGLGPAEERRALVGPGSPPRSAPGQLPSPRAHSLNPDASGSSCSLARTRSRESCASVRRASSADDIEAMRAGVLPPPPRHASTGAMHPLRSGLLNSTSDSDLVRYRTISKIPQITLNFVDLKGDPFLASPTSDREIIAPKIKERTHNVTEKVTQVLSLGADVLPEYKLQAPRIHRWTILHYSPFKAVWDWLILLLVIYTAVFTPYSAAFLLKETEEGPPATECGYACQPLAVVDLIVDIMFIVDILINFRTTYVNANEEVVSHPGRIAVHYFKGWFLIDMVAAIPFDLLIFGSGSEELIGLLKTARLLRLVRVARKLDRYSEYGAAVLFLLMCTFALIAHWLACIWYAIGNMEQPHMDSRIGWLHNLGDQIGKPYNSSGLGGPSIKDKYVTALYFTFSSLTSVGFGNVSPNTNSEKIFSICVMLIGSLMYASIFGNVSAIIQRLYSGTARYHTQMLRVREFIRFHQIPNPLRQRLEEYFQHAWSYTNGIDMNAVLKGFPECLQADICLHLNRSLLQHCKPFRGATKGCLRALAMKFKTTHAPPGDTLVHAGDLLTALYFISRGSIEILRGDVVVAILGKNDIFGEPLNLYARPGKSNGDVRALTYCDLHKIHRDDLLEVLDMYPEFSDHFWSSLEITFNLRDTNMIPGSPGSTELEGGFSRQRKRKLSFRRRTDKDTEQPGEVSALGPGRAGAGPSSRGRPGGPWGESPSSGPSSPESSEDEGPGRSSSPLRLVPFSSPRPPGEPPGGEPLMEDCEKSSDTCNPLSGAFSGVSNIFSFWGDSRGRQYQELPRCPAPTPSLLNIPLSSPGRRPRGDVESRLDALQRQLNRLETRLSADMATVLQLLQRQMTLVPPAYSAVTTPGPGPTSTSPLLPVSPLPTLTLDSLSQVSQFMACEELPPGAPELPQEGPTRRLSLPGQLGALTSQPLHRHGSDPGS

Row | Structure (SMILES) | activity outcome for hERG inhibition in the assay (hERG [1]; [4]) | IC50 (hERG [2]) | also measured
1 | C/C=C/C(=O)Oc1ccccc1[N+](=O)[O-] [Dinocap] | inhibitory activity | 20.3 µM | –
2 | Cl[C@H]1[C@H](Cl)[C@@H](Cl)[C@@H](Cl)[C@H](Cl)[C@H]1Cl [lindane] | – | 45 µM | activity outcome for hERG inhibition in the assay (hERG [1]): inhibitory activity
3 | Cc1nc2sccn2c(=O)c1CCN1CCC(=C(c2ccc(F)cc2)c2ccc(F)cc2)CC1 [Ritanserin] | most active | – | IC50 (hERG [1]; [5]): 0.18 µM
4 | O=C(CCCN1CCC(O)(c2cccc(C(F)(F)F)c2)CC1)c1ccc(F)cc1 [Trifluperidol] | most active | – | –
5 | CS(=O)(=O)CCNCc1ccc(-c2ccc3ncnc(Nc4ccc(OCc5cccc(F)c5)c(Cl)c4)c3c2)o1 [Lapatinib] | showing activity against hERG | – | –
6 | c1cc[c]([Sb]([c]2ccccc2)[c]2ccccc2)cc1 [Triphenylstibine] | – | – | IC50 (hERG [3]): 17.4 µM
7 | O=c1[nH]c2ccccc2n1CCCN1CCC(n2c(=O)[nH]c3cc(Cl)ccc32)CC1 [Domperidone] | showing activity against hERG | – | –
8 | CCNc1ccc(C(=C2C=CC(=[N+](CC)CC)C=C2)c2ccc(N(CC)CC)cc2)c2ccccc12.[Cl-] [basic blue 7] | most active | 0.526 µM | –
9 | Clc1ccc(C(c2ccccc2Cl)C(Cl)(Cl)Cl)cc1 (stereo not drawn) [o p’-DDT] | inhibitory activity | – | –
10 | CC1(C)CNC(=NN=C(/C=C/c2ccc(C(F)(F)F)cc2)/C=C/c2ccc(C(F)(F)F)cc2)NC1 [hydramethylnon] | most active | 0.436 µM | –
11 | CCCCCCCCCCCCCC[P+](CCCC)(CCCC)CCCC.[Cl-] [tributyltetradecylphosphonium chloride] | most active | 0.334 µM | –
12 | CC(C)NCC(O)c1ccc(NS(C)(=O)=O)cc1 (stereo not drawn) [Sotalol] | active | – | –
13 | CCCCCCCC[N+](CCCCCCCC)(CCCCCCCC)CCCCCCCC.[Br-] [tetra-N-octylammonium bromide] | – | 0.745 µM | activity outcome for hERG inhibition in the assay (hERG [1]): most active
14 | O=C(CCCN1CCC(O)(c2ccc(Cl)cc2)CC1)c1ccc(F)cc1 [Haloperidol] | – | – | activity outcome for hERG inhibition in the assay (hERG [1]): most active
15 | O=c1[nH]cc(F)c(=O)[nH]1 [5-fluorouracil] | inactive | – | –
16 | O=S1OCC2C(CO1)C1(Cl)C(Cl)=C(Cl)C2(Cl)C1(Cl)Cl (stereo not drawn) [Endosulfan] | – | 32.1 µM | activity outcome for hERG inhibition in the assay (hERG [1]): inhibitory activity
17 | C=CCC1=C(C)C(OC(=O)C2C(C=C(C)C)C2(C)C)CC1=O (stereo not drawn) [allethrin] | – | 32.3 µM | activity outcome for hERG inhibition in the assay (hERG [1]): inhibitory activity
18 | O=C(CCCN1CCC(O)(c2ccc(Br)cc2)CC1)c1ccc(F)cc1 [Bromperidol] | most active | 0.249 µM | –
19 | O=c1[nH]c2ccccc2n1C1CCN(CCCC(c2ccc(F)cc2)c2ccc(F)cc2)CC1 [Pimozide] | – | – | activity outcome for hERG inhibition in the assay (hERG [1]): most active
20 | CC(CCc1ccccc1)NCC(O)c1ccc(O)c(C(N)=O)c1 (stereo not drawn) [Labetalol] | – | 13.3 µM | activity outcome for hERG inhibition in the assay (hERG [1]): active
21 | CCCCCCCCCCn1cc[n+](CCCCCCCCCC)c1C.[Cl-] [3-Didecyl-2-methylimidazolium chloride] | most active | – | –
22 | CCCCCCCC[P+](CCCCCCCC)(CCCCCCCC)CCCCCCCC.[Br-] [tetraoctylphosphonium bromide] | most active | 0.402 µM | –
23 | CO.COc1cc(Nc2c(C#N)cnc3cc(OCCCN4CCN(C)CC4)c(OC)cc23)c(Cl)cc1Cl [Bosutinib methanoate] | showing activity against hERG | – | –
24 | CC(C)(C)c1ccc(CSc2cnn(C(C)(C)C)c(=O)c2Cl)cc1 [Pyridaben] | inhibitory activity | 18.8 µM | –
25 | O=C1NCN(c2ccccc2)C12CCN(CCCC(c1ccc(F)cc1)c1ccc(F)cc1)CC2 [Fluspirilene] | most active | – | –
26 | CCNC(=O)N1CCN(CCCC(c2ccc(F)cc2)c2ccc(F)cc2)CC1 [Amperozide hydrochloride] | – | – | IC50 (hERG [1]; [6]): 0.0916 µM
27 | C#CCC1=C(C)C(OC(=O)C2C(C=C(C)C)C2(C)C)CC1=O (stereo not drawn) [prallethrin] | inhibitory activity | 46.8 µM | –

Row | Structure (SMILES) | activity outcome for hERG inhibition in the assay (hERG [1]; [4]) | IC50 (hERG [2]) | also measured
28 | CCCCCCCC[N+](C)(CCCCCCCC)CCCCCCCC.O=S(=O)([O-])C(F)(F)F [Methyltrioctylammonium trifluoromethanesulfonate] | – | 0.109 µM | Aff (affinity classification) (hERG [1]): 1; activity outcome for hERG inhibition in the assay (hERG [1]): most active
29 | Cc1cc2c3c(c1)C(c1ccccc1)=N[C@@H](NC(=O)c1ccncc1)C(=O)N3CC2 [CI-1018] | – | 25.5 µM | –
30 | c1ccc(Sc2ccccc2)cc1 [Diphenyl sulfide] | – | 43.6 µM | –
31 | COc1ccc(-c2cc(C(F)F)nn2-c2ccc(S(N)(=O)=O)cc2)cc1F [Deracoxib] | – | 23.9 µM | –
32 | C[C@H]1CCC[C@H](O)CCCCCc2cc(O)cc(O)c2C(=O)O1 [Zearalanol] | – | 55.4 µM | –
33 | CN(C/C=C/C#CC(C)(C)C)Cc1cccc2ccccc12 [Terbinafine] | – | 9.52 µM | –
34 | CN(C)CCOc1ccccc1Cc1ccccc1 [Phenyltoloxamine citrate] | – | 8.49 µM | –
35 | CCCCCCn1cc[n+](C)c1 [1-Hexyl-3-methylimidazolium tetrafluoroborate] | – | 60.6 µM | –
36 | CCCC(=O)O[C@]1(C(=O)CCl)[C@@H](C)C[C@H]2[C@@H]3CCC4=CC(=O)C=C[C@]4(C)[C@@]3(F)C(=O)C[C@@]21C [Clobetasone butyrate] | – | 8.01 µM | –
37 | CCc1nn(CCCN2CCN(c3cccc(Cl)c3)CC2)c(=O)n1CCOc1ccccc1 [Nefazodone hydrochloride] | – | 1.57 µM | –
38 | CC[N+](CC)(CC)CCOc1ccc(/C=C/c2ccccc2)cc1 [Stilonium iodide] | – | 8.82 µM | –
39 | OCC(c1ccc(Cl)cc1)c1ccc(Cl)cc1 [2,2-Bis(4-chlorophenyl)ethanol] | – | 49 µM | –
40 | CCCCCCCCCCn1cc[n+](C)c1 [1-Decyl-3-methylimidazolium trifluoromethanesulfonate] | – | 13.6 µM | –
41 | CC[N+]1(C)CCCC1 [1-Ethyl-1-methylpyrrolidinium iodide] | – | 19.5 µM | –
42 | CC(O)(c1ccc(Cl)cc1)c1ccc(Cl)cc1 [Chlorfenethol] | – | 46.2 µM | –
43 | Brc1ccccc1-c1ccccc1 [2-Bromobiphenyl] | – | 35.5 µM | –
44 | CCCCCCCCCCCCOCCOCCOCCOCCOCCOCCOCCOCCOCCO [Polyoxyethylene (9) lauryl ether] | – | 21.3 µM | –
45 | CC(C)=CCC[C@](C)(O)[C@@H]1CC=C(C)CC1 [Levomenol] | – | 38.9 µM | –
46 | Clc1ccc(C(OCCN2CCCCC2)c2ccccc2)cc1 (stereo not drawn) [Cloperastine hydrochloride] | – | 0.849 µM | –
47 | c1ccc(CN(CC2=NCCN2)c2ccccc2)cc1 [Antazoline hydrochloride] | – | 15.7 µM | –
48 | CCCCCCCCCCCCCC[P+](CCCCCC)(CCCCCC)CCCCCC [Trihexyltetradecylphosphonium bromide] | – | 0.44 µM | –
49 | OC(CN1CCC(Cc2ccc(F)cc2)CC1)c1ccc(Cl)cc1 (stereo not drawn) [Eliprodil] | most active | – | IC50 (hERG [1]; [6]): 0.0916 µM; IC50 (hERG [1]; [5]): 0.09 µM
50 | CCOC(=O)O[C@H](C)OC(=O)c1ccc2c(c1)cc(C(=O)NC1CCN(C(C)C)CC1)n2Cc1cc(-c2ccc(Cl)s2)on1 [AVE6324] | – | 8.14 µM | –
51 | CCN(CC)c1nc(C)cc(OP(=S)(OC)OC)n1 [Pirimiphos-methyl] | – | 50.9 µM | –
52 | CC(C)(C)c1ccc(CCC=O)cc1 [3-(4-tert-Butylphenyl)propanal] | – | 49 µM | –
53 | c1ccc(C[P+](c2ccccc2)(c2ccccc2)c2ccccc2)cc1 [Benzyltriphenylphosphonium chloride] | – | 2.27 µM | –
54 | C[C@@H](C1=C(CCN(C)C)Cc2ccccc21)c1ccccn1 [(S)-(+)-Dimethindene maleate] | – | 13.4 µM | –
